Experimental data as given in US7547716B2, “Sulfonamide derivatives” (Institute of Medicinal Molecular Design, Inc., priority 2001, dated 2009).
Counter-ions that a name gives are not always drawn.

tested on: Jurkat cells; experiment: Jurkat cell proliferation, compound alone or combined with bleomycin, living cells counted by MTS method; assay type: cell-based; set-up: key: ++ indicates observation of remarkable enhancement; + indicates moderated enhancement; conditions: enhancement of the decrease in Jurkat cell survival rate by bleomycin 5 μg/ml or 10 μg/ml, 36 hours incubation
Experimental: By using the compounds synthesized above, effects on proliferation of Jurkat cells by sole administration and inhibitory effects on cell proliferation by administration in combination with bleomycin were examined. Materials and methods are as follows. Jurkat cells obtained from Dainippon Pharmaceutical Co. Ltd. were inoculated at about 10,000 cells per well in a 96 well culture plate, and incubated in 10% bovine fetal serum (Irvine Scientific) supplemented with RPMI1640(ICN) medium in 5% CO2 incubator at 37° C. […] 36 hours after the incubation, the number of living cells was counted by the MTS method.
More specifically, 20 μl of CellTiter96™ AQueous One Solution (Promega) was added per one well, and after the cells were incubated for additional one hour, an absorbance at 490 nm was measured by using a microplate reader. The same culture added with DMSO as a solvent at final concentration of 0.25% was used as a control. The number of cells in the control was considered as 100% survival rate, and for each compound, survival rates by sole administration or a combined administration were calculated.

Compound	Activity
Nc1cccc2c(S(=O)(=O)NCc3c(F)cccc3F)cccc12 [Compound 12, 5-amino-N-[(2,6-difluorophenyl)methyl]-1-naphthalenesulfonamide hydrochloride]	++
5-amino-N-[(2-fluorophenyl)methyl-1-naphthalenesulfonamide hydrochloride [Compound 9]	+
CC(C)(C)c1ccc(CNS(=O)(=O)c2cccc3c(N)cccc23)cc1 [Compound 18, 5-amino-N-[[4-(1,1-dimethylethyl)phenyl]methyl]-1-naphthalenesulfonamide hydrochloride]	++
Nc1cccc2c(S(=O)(=O)NCc3ccc(Cl)cc3Cl)cccc12 [Compound 6, 5-amino-N-[(2,4-dichlorophenyl)methyl]-1-naphthalenesulfonamide hydrochloride]	++
COc1cccc(CNS(=O)(=O)c2cccc3c(N)cccc23)c1OC [Compound 28, 5-amino-N-[(2,3-dimethoxyphenyl)methyl]-1-naphthalenesulfonamide hydrochloride]	++
Cc1ccccc1CNS(=O)(=O)c1cccc2c(N)cccc12 [Compound 15, 5-amino-N-[(2-methylphenyl)methyl]-1-naphthalenesulfonamide hydrochloride]	+
Nc1cccc2c(S(=O)(=O)NCc3cccc(OCc4ccccc4)c3)cccc12 [Compound 35, 5-amino-N-[[3-(phenylmethoxy)phenyl]methyl]-1-naphthalenesulfonamide hydrochloride]	+
Nc1ccccc1CNS(=O)(=O)c1cccc2c(N)cccc12 [Compound 43, 5-amino-N-[(2-aminophenyl)methyl]-1-naphthalenesulfonamide dihydrochloride]	+
Nc1cccc2c(S(=O)(=O)NCc3ccc([N+](=O)[O-])cc3)cccc12 [Compound 42, 5-amino-N-[(4-nitrophenyl)methyl]-1-naphthalenesulfonamide hydrochloride]	++
Nc1cccc(CNS(=O)(=O)c2cccc3c(N)cccc23)c1 [Compound 44, 5-amino-N-[(3-aminophenyl)methyl]-1-naphthalenesulfonamide dihydrochloride]	+
Nc1cccc2c(S(=O)(=O)NCc3cc(F)cc(F)c3)cccc12 [Compound 14, 5-amino-N-[(3,5-difluorophenyl)methyl]-1-naphthalenesulfonamide hydrochloride]	+
Nc1cccc2c(S(=O)(=O)NCc3ccc(Cl)cc3)cccc12 [Compound 5, 5-amino-N-[(4-chlorophenyl)methyl]-1-naphthalenesulfonamide hydrochloride]	+
CC(NS(=O)(=O)c1cccc2c(N)cccc12)c1cccc2ccccc12 (stereo not drawn) [Compound 56, 5-amino-N-[1-(1-naphthalenyl)ethyl]-1-naphthalenesulfonamide hydrochloride]	+
Nc1cccc2c(S(=O)(=O)NCc3cccc(O)c3)cccc12 [Compound 38, 5-amino-N-[(3-hydroxyphenyl)methyl]-1-naphthalenesulfonamide hydrochloride]	+
Nc1cccc2c(S(=O)(=O)NCc3cccc([N+](=O)[O-])c3)cccc12 [Compound 41, 5-amino-N-[(3 nitrophenyl)methyl]-1-naphthalenesulfonamide hydrochloride]	++
Nc1cccc2c(S(=O)(=O)NC3CCCc4ccccc43)cccc12 (stereo not drawn) [Compound 58, 5-amino-N-(1,2,3,4-tetrahydro-1-naphthalenyl)-1-naphthalenesulfonamide]	+
Nc1cccc2c(S(=O)(=O)NCc3ccccn3)cccc12 [Compound 53, 5-amino-N-(2-pyridinylmethyl)-1-naphthalenesulfonamide dihydrochloride]	+
CC(NS(=O)(=O)c1cccc2c(N)cccc12)c1ccccc1 (stereo not drawn) [Compound 55, 5-amino-N-(1-phenylethyl)-1-naphthalenesulfonamide]	+
Nc1cccc2c(S(=O)(=O)Nc3ccccc3)cccc12 [Compound 64, 5-amino-N-phenyl-1-naphthalenesulfonamide hydrochloride]	+
Nc1cccc2c(S(=O)(=O)NCc3ccc(OCc4ccccc4)cc3)cccc12 [Compound 36, 5-amino-N-[[4-(phenylmethoxy)phenyl]methyl]-1-naphthalenesulfonamide hydrochloride]	+
COc1ccc(CNS(=O)(=O)c2cccc3c(N)cccc23)cc1 [Compound 26, 5-amino-N-[(4-methoxyphenyl)methyl]-1-naphthalenesulfonamide hydrochloride]	+
5-amino-N-[[[4′-methyl-1,1′-biphenyl]-2-yl]methyl]-1-naphthalenesulfonamide hydrochloride [Compound 23]	+
Nc1cccc2c(S(=O)(=O)NCc3ccc(C(=O)O)cc3)cccc12 [Compound 48, 4-[[[(5-amino-1-naphthalenyl)sulfonyl]-amino]methyl]benzoic acid hydrochloride]	+
Nc1cccc2c(S(=O)(=O)NCc3ccccc3C(F)(F)F)cccc12 [Compound 19, 5-amino-N-[[2-(trifluoromethyl)phenyl]methyl]-1-naphthalenesulfonamide hydrochloride]	++
COc1cc(CNS(=O)(=O)c2cccc3c(N)cccc23)cc(OC)c1 [Compound 31, 5-amino-N-[(3,5-dimethoxyphenyl)methyl]-1-naphthalenesulfonamide hydrochloride]	++
COc1cccc(CNS(=O)(=O)c2cccc3c(N)cccc23)c1 [Compound 25, 5-amino-N-[(3-methoxyphenyl)methyl]-1-naphthalenesulfonamide hydrochloride]	++
Nc1cccc2c(S(=O)(=O)NCc3ccc(C(F)(F)F)cc3)cccc12 [Compound 21, 5-amino-N-[[4-(trifluoromethyl)phenyl]methyl]-1-naphthalenesulfonamide hydrochloride]	++
Nc1cccc2c(S(=O)(=O)NCc3cccc4ccccc34)cccc12 [Compound 1, 5-amino-N-[(1-naphthalenyl)methyl]-1-naphthalenesulfonamide hydrochloride]	+
Nc1cccc2c(S(=O)(=O)NCc3ccccc3Cl)cccc12 [Compound 3, 5-amino-N-[(2-chlorophenyl)methyl]-1-naphthalenesulfonamide hydrochloride]	+
COc1ccccc1CNS(=O)(=O)c1cccc2c(N)cccc12 [Compound 24, 5-amino-N-[(2-methoxyphenyl)methyl]-1-naphthalenesulfonamide hydrochloride]	++
